The text below walks through data of patent US20250368666A1, “INDAZOLE COMPOUNDS” (TYRA BIOSCIENCES, INC., priority 2022, published 2025).

What all share (assay): Kinase binding assay (kinase-tagged T7 phage, affinity beads, qPCR), Kd
(Real-time PCR tracks product formation cycle by cycle.)

The target of test [1] is T1, FGFR3 (V555M) (Homo sapiens, UniProt P22607, V555M).
T1 construct: made in house; host or cells: E. coli (BL21-derived), T7 phage
Conditions: V555M mutant; read-out: FGFR3 (V555M) (Kd nM). A digest of the protocol: (§1)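 Competition binding; kinase-tagged T7 phage lysate vs immobilised biotinylated ligand on streptavidin beads, 0.9% DMSO final. 11-pt 3-fold dilutions, 3 DMSO controls. qPCR of eluted kinase; Kd by Hill fit, slope −1.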

Test [2] addresses T2, FGFR1 (Homo sapiens, UniProt P11362).
T2 construct: made in house; host or cells: E. coli (BL21-derived), T7 phage
Conditions: read-out: FGFR1 (Kd nM). The essentials: as §1

The target of test [3] is T3, FGFR4 (Homo sapiens, UniProt P22455).
T3 construct: made in house; host or cells: E. coli (BL21-derived), T7 phage
The conditions noted are these: read-out: FGFR4 (Kd nM). A digest of the protocol: as §1

The target of test [4] is T4, FGFR3 (Homo sapiens, UniProt P22607).
T4 construct: made in house; host or cells: E. coli (BL21-derived), T7 phage
The conditions noted are these: read-out: FGFR3 (Kd nM). A digest of the protocol: as §1

The target in test [5] is T5, FGFR2 (Homo sapiens, UniProt P21802).
T5 construct: made in house; host or cells: E. coli (BL21-derived), T7 phage
The conditions noted are these: read-out: FGFR2 (Kd nM). A digest of the protocol:
as §1

T4 sequence (P22607 23-806): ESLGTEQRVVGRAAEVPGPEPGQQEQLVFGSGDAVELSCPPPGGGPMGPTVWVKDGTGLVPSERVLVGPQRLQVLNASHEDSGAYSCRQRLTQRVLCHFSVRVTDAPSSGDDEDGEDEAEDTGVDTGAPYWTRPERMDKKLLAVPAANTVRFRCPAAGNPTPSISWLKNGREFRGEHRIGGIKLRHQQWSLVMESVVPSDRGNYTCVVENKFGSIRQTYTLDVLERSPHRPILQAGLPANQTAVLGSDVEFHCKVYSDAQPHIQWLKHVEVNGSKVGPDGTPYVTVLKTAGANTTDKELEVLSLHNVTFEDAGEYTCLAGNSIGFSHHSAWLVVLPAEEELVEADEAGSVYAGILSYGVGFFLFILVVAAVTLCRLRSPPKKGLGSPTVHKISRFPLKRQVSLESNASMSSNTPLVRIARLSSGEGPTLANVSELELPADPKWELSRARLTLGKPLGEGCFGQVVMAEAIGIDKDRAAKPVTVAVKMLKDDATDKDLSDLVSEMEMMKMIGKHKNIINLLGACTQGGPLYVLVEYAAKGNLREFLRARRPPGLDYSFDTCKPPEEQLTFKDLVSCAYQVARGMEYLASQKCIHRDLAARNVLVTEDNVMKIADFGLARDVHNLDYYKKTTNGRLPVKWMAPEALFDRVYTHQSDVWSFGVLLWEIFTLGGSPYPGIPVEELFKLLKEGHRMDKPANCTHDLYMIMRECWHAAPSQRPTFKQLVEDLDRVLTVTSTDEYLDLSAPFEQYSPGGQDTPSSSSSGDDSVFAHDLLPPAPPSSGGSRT
T5 sequence (P21802 22-821): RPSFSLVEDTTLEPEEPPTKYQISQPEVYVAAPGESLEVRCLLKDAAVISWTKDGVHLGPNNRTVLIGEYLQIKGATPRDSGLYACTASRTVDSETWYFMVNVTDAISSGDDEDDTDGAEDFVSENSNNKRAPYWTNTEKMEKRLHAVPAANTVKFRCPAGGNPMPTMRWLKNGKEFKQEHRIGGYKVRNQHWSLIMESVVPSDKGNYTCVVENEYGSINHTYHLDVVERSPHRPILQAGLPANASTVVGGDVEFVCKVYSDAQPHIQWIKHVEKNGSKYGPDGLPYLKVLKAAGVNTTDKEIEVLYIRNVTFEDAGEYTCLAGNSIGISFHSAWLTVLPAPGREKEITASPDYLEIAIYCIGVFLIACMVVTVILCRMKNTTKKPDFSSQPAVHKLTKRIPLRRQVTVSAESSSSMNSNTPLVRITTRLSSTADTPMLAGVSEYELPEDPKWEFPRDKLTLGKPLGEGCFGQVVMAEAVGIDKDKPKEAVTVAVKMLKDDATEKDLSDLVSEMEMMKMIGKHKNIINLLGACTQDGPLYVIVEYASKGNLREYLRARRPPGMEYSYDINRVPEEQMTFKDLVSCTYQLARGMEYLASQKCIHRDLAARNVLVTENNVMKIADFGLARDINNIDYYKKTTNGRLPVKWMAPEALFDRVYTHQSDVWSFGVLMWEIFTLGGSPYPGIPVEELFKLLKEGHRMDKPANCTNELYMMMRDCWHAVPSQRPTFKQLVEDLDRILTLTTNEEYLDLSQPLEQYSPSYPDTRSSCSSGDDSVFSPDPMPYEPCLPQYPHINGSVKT
T1 sequence (P22607 23-806 V555M): as the sequence (P22607 23-806) above, with V533M counted along it
T3 sequence (P22455 22-802): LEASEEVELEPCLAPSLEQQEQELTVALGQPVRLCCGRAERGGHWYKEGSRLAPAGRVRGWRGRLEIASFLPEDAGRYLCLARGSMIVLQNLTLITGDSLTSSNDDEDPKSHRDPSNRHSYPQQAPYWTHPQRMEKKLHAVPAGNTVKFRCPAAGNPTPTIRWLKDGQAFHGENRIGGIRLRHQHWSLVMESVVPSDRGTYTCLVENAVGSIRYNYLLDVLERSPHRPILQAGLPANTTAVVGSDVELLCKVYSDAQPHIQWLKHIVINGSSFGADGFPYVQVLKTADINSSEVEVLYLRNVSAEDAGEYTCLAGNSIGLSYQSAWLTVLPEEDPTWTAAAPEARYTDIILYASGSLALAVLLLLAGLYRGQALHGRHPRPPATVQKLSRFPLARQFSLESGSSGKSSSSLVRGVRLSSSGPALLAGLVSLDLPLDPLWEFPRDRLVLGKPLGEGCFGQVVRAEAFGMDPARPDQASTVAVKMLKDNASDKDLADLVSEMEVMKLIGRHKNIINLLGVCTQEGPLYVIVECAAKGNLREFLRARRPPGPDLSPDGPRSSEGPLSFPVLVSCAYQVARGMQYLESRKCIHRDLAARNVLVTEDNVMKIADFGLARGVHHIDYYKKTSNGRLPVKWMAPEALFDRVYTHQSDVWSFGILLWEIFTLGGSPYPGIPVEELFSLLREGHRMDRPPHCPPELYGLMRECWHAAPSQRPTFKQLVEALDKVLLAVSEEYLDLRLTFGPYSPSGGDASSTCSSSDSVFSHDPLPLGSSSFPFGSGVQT
T2 sequence (P11362 22-822): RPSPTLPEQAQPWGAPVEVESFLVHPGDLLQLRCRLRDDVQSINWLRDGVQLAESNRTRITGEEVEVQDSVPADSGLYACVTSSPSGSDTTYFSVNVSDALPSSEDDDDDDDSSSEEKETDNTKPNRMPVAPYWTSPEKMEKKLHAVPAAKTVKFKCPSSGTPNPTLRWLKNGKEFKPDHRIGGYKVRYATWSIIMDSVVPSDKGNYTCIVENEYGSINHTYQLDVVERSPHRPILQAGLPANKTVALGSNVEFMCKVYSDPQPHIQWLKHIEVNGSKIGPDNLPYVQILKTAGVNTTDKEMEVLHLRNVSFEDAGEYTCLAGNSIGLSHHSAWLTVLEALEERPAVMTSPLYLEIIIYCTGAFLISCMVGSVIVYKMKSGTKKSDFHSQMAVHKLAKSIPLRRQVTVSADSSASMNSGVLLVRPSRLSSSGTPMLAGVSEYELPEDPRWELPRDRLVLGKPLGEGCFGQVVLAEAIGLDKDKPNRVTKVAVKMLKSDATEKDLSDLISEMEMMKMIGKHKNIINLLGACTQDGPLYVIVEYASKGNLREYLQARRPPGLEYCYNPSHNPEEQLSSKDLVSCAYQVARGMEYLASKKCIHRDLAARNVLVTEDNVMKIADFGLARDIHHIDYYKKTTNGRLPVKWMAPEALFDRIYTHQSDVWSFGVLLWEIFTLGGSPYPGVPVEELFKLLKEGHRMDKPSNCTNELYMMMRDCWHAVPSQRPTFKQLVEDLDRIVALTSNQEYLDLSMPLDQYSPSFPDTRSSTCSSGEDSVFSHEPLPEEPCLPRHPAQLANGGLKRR

In general, Kd refers to the equilibrium constant for the complex coming apart. Take `C[C@@H](Oc1cc2c(-c3ccc(N4CC(C)(NC5CCC5)C4)nc3)n[nH]c2cc1F)c1c(Cl)cncc1Cl` [Example 68, N-cyclobutyl-1-[5-[5-[(1R)-1-(3,5-dichloro-4-pyridyl)ethoxy]-6-fluoro-1H-indazol-3-yl]-2-pyridyl]-3-methyl-azetidin-3-amine]: the dissociation constant (Kd) in test [1], in test [2], in test [3], in test [4] and in test [5] was 1 to 50 nM each time.
Turning to `CC(C)NC1(C)CN(c2ncc(-c3n[nH]c4ccc(O[C@H](C)c5c(Cl)cncc5Cl)c(F)c34)cc2C#N)C1` [Example 319, (R)-5-(5-(1-(3,5-dichloropyridin-4-yl)ethoxy)-4-fluoro-1H-indazol-3-yl)-2-(3-(isopropylamino)-3-methylazetidin-1-yl)nicotinonitrile], the Kd in test [1] is 300 to 1000 nM; in test [2], above 1000 nM; in test [3], 50 to 300 nM; in test [4] it was above 1000 nM; in test [5] it was above 1000 nM.
For the compound `C[C@@H](Oc1ccc2[nH]nc(-c3cnc(N4CC(C)(NCC5(O)CC5)C4)c(C#N)c3)c2c1)c1c(Cl)cncc1Cl` [Example 120, (R)-5-(5-(1-(3,5-dichloropyridin-4-yl)ethoxy)-1H-indazol-3-yl)-2-(3-(((1-hydroxycyclopropyl)meth-yl)amino)-3-methylazetidin-1-yl)nicotinonitrile], the equilibrium dissociation constant (Kd) was 1 to 50 nM in test [1]; 1 to 50 nM in test [2]; 1 to 50 nM in test [3]; 1 to 50 nM in test [4]; 50 to 300 nM in test [5].
As for `C[C@@H](Oc1ccc2[nH]nc(-c3ccc(N4CC(C)(NCP(C)(C)=O)C4)nc3)c2c1)c1c(Cl)cncc1Cl` [Example 230, 1-[5-[5-[(1R)-1-(3,5-dichloro-4-pyridyl)ethoxy]-1H-indazol-3-yl]-2-pyridyl]-N-(di-methylphosphoryl-methyl)-3-methyl-azetidin-3-amine], the Kd in test [1], in test [2], in test [3], in test [4] and in test [5] was 1 to 50 nM each time.
Regarding `C[C@@H](Oc1ccc2[nH]nc(-c3cnc(N4CC(C)(N5CCCC5)C4)c(F)c3)c2c1)c1c(Cl)cncc1Cl` [Example 107, (R)-5-(1-(3,5-dichloropyridin-4-yl)ethoxy)-3-(5-fluoro-6-(3-methyl-3-(pyrrolidin-1-yl)azetidin-1-yl)pyridin-3-yl)-1H-indazole], the Kd in test [1], in test [2], in test [3], in test [4] and in test [5] was 1 to 50 nM in each case.
Turning to `COc1cc2[nH]nc(-c3cnc(N4CC(C)(NCCO)C4)nc3)c2cc1O[C@H](C)c1c(Cl)cncc1Cl` [Example 86, (R)-2-((1-(5-(5-(1-(3,5-dichloropyridin-4-yl)ethoxy)-6-methoxy-1H-indazol-3-yl)pyrimidin-2-yl)-3-methylazetidin-3-yl)amino)ethan-1-ol], the Kd in test [1], in test [2], in test [3], in test [4] and in test [5] was 1 to 50 nM each time.
As for `C[C@@H](Oc1ccc2[nH]nc(-c3cnc(N4CC(C)(N5CCC5)C4)c(F)c3)c2c1F)c1c(Cl)cncc1Cl` [Example 184, (R)-5-(1-(3,5-dichloropyridin-4-yl)ethoxy)-4-fluoro-3-(5-fluoro-6-(3′-methyl-[1,3′-biazetidin]-1′-yl)pyridin-3-yl)-1H-indazole], the dissociation constant (Kd) in test [1] was in the range of 1 to 50 nM; in test [2] it was 300 to 1000 nM; in test [3], 50 to 300 nM; in test [4] it was 1 to 50 nM; in test [5] it was 300 to 1000 nM.
Consider `C[C@@H](O)CNC1(C)CN(c2ncc(-c3n[nH]c4ccc(O[C@H](C)c5c(Cl)cncc5Cl)cc34)cc2F)C1` [Example 104, (R)-1-((1-(5-(5-((R)-1-(3,5-dichloropyridin-4-yl)ethoxy)-1H-indazol-3-yl)-3-fluoropyridin-2-yl)-3-methylazetidin-3-yl)amino)propan-2-ol], for which the dissociation constant (Kd) in test [1], in test [2], in test [3], in test [4] and in test [5] was 1 to 50 nM throughout.
In the case of `C[C@@H](Oc1cc2c(-c3cnc(N4CC(C)(CN5CCCC5)C4)c(C#N)c3)n[nH]c2cc1F)c1c(Cl)cncc1Cl` [Example 317, (R)-5-(5-(1-(3,5-dichloropyridin-4-yl)ethoxy)-6-fluoro-1H-indazol-3-yl)-2-(3-methyl-3-(pyrrolidin-1-ylmethyl)azetidin-1-yl)nicotinonitrile], the equilibrium dissociation constant (Kd) in test [1] lay in the range of 1 to 50 nM; in test [2], 50 to 300 nM; in test [3], 1 to 50 nM; in test [4], 1 to 50 nM; in test [5], 50 to 300 nM.
As for `C[C@@H](Oc1ccc2[nH]nc(-c3ccc(N4CC(C)(N5CCOCC5)C4)nc3)c2c1)c1c(Cl)cncc1Cl` [Example 94, 4-[1-[5-[5-[(1R)-1-(3,5-dichloro-4-pyridyl)ethoxy]-1H-indazol-3-yl]-2-pyridyl]-3-methyl-azetidin-3-yl]morpholine], the equilibrium dissociation constant (Kd) in test [1], in test [2], in test [3], in test [4] and in test [5] was 1 to 50 nM each time.
`C[C@@H](Oc1ccc2[nH]nc(-c3cnc(N4CC(C)(NCC5CC5)C4)c(F)c3)c2c1F)c1c(Cl)cncc1Cl` [Example 174, (R)-N-(cyclo-propylmethyl)-1-(5-(5-(1-(3,5-dichloropyridin-4-yl)ethoxy)-4-fluoro-1H-indazol-3-yl)-3-fluoropyridin-2-yl)-3-methylazetidin-3-amine]: the Kd is 50 to 300 nM in test [1]; 300 to 1000 nM in test [2]; 50 to 300 nM in test [3]; 50 to 300 nM in test [4]; above 1000 nM in test [5].
As to `C[C@H](O)CNC1(C)CN(c2ncc(-c3n[nH]c4ccc(O[C@H](C)c5c(Cl)cncc5Cl)c(F)c34)cc2F)C1` [Example 176, (S)-1-((1-(5-(5-((R)-1-(3,5-dichloropyridin-4-yl)ethoxy)-4-fluoro-1H-indazol-3-yl)-3-fluoropyridin-2-yl)-3-methylazetidin-3-yl)amino)propan-2-ol], the Kd was 50 to 300 nM in test [1]; 300 to 1000 nM in test [2]; 50 to 300 nM in test [3]; 50 to 300 nM in test [4]; above 1000 nM in test [5].
`COc1cc2[nH]nc(-c3cnc(N4CC(C)(CNC(C)C)C4)nc3)c2cc1O[C@H](C)c1c(Cl)cncc1Cl` [Example 84, (R)-N-((1-(5-(5-(1-(3,5-dichloropyridin-4-yl)ethoxy)-6-methoxy-1H-indazol-3-yl)pyrimidin-2-yl)-3-methylazetidin-3-yl)methyl)propan-2-amine]: the Kd in test [1], in test [2], in test [3], in test [4] and in test [5] was 1 to 50 nM throughout.
For the compound `C[C@@H](Oc1cc2c(-c3cnc(N4CC(C)(N5CCC5)C4)c(F)c3)n[nH]c2cc1F)c1c(Cl)cncc1Cl` [Example 163, 3-[6-[3-(azetidin-1-yl)-3-methyl-azetidin-1-yl]-5-fluoro-3-pyridyl]-5-[(1R)-1-(3,5-dichloro-4-pyridyl)ethoxy]-6-fluoro-1H-indazole], the dissociation constant Kd in test [1], in test [2], in test [3], in test [4] and in test [5] was 1 to 50 nM throughout.
